Reference: paper PMC6264316, “The Triterpenes 3β-Lup-20(29)-en-3-ol and 3β-Lup-20(29)-en-3-yl Acetate and the Carbohydrate 1,2,3,4,5,6-Hexa-O-acetyl-dulcitol as Photosynthesis Light Reactions Inhibitors” (Molecules, 2011)

What was measured:
[1] = target: T1, Mg2+-ATPase bound to thylakoid membrane (membrane-bound CF1; H+-ATPase) (Spinacia oleracea, UniProt P00825+P06450); assay: light-triggered Mg2+-ATPase activity in thylakoids, released Pi; type: biochemical; details: read-out: Mg^2+-ATPase (%)
T1 construct: gene atpB; with ATP synthase subunit a, chloroplastic; ATP synthase subunit b, chloroplastic; ATP synthase subunit b', chloroplastic; ATP synthase subunit c, chloroplastic
Excerpt: light-triggered Mg2+-ATPase activity in thylakoids, released Pi on Mg2+-ATPase bound to thylakoid membrane (membrane-bound CF1; H+-ATPase)

[2] = target: T2, isolated CF1 (Ca2+-ATPase) (Spinacia oleracea, UniProt P00825+P06450); assay: Ca2+-ATPase activity, released Pi; type: biochemical; details: read-out: Ca^2+-ATPase (%)
T2 construct: gene atpB
T2 sequence (P00825 whole entry): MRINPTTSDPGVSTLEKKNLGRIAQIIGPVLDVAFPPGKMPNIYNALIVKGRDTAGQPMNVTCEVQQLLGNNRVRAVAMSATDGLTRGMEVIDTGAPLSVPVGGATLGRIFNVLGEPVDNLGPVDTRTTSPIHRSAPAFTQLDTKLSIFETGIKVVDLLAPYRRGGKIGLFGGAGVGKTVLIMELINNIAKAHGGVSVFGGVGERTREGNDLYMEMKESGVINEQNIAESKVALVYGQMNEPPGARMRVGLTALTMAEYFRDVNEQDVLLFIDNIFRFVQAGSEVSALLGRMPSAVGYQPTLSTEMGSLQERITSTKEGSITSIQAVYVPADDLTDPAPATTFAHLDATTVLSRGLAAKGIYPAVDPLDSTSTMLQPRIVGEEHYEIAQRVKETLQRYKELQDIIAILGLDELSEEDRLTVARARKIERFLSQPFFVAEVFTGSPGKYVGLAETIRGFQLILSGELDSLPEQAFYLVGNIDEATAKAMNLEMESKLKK
T2 sequence (P06450 whole entry): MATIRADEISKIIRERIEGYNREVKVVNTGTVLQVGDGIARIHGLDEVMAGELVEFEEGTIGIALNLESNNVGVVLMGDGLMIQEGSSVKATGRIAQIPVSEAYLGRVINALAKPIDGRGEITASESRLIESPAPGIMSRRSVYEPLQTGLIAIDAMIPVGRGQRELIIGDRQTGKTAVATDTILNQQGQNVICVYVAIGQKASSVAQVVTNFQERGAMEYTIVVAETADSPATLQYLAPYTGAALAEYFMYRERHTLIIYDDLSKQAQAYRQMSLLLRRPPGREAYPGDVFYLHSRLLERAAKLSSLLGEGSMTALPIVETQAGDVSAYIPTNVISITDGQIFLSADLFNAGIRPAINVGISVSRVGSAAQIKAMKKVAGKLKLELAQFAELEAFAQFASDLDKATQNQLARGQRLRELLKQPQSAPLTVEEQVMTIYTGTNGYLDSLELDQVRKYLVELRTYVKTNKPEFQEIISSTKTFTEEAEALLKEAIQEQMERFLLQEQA
T2 sequence (P05435 42-364 partner): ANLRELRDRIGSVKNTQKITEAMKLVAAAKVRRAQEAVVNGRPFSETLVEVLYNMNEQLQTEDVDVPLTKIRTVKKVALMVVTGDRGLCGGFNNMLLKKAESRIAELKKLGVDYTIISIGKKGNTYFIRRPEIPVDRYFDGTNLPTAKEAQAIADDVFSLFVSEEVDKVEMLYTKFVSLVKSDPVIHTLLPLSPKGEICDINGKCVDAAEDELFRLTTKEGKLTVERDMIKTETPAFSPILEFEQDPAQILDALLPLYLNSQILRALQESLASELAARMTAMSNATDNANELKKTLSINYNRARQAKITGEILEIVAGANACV
T2 sequence (P11402 71-257 partner): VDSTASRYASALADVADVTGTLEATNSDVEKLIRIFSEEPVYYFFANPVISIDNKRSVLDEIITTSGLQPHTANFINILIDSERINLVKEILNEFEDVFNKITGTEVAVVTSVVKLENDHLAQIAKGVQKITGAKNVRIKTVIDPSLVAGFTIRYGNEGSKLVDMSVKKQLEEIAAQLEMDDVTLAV
T2 sequence (P00833 whole entry partner): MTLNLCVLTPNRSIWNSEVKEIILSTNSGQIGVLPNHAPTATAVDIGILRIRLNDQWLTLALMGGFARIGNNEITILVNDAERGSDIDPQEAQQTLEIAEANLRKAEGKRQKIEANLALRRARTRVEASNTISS
Excerpt: Ca2+-ATPase activity, released Pi on isolated CF1 (Ca2+-ATPase)

C=C(C)[C@@H]1CC[C@]2(C)CC[C@]3(C)[C@H](CC[C@@H]4[C@@]5(C)CC[C@H](O)C(C)(C)[C@@H]5CC[C@]43C)[C@@H]12 [compound 1, 3β-Lup-20(29)-en-3-ol]
activity at 100 µM [1]: 65% | activity at 300 µM [2]: 179%
